Assay results taken from US10865238B1, “Complement factor H antibodies” (Duke University, priority 2017, dated 2020).

Key:
H460 cells = experiment: Calreticulin translocation to plasma membrane, H460; format: cell-based, human; conditions: H460, NHS, compared to negative controls
Method: (§1) H460 or A549 cells were treated for 2.5 hr with 1, medium; 2, NHS and CFH mAb (200 μg/ml); 3, NHS and IgG (200 μg/ml); or 4, NHS and Doxorubicin (25 μM).
(§2) In order to see if lung tumor cells undergoing CFH mAb-induced CDC send an ICD signal, human lung tumor cell lines (H460 and A549) were incubated in medium containing complement from the addition of NHS, and treated with CFH mAb, control antibody, or the known ICD inducer doxorubicin (Kepp et al. Oncoimmunology 2014; 3:e955691; Krysko et al. Nat Rev Cancer 2012; 12:860-75.). […] Total calreticulin in whole cell lysates was the same under all conditions.

A549 cells = experiment: Calreticulin translocation to plasma membrane, A549; format: cell-based, human; conditions: A549, NHS, compared to negative controls
Method: as §1, §2

[1] = molecular target: T1, reduced Complement Factor H (CFH) (human, UniProt P08603 19-1231, disulfide bonds reduced with TCEP); experiment: western blot (immunoblot) on native and TCEP-reduced CFH
T1 construct: also called reduced CFH; CFH treated with TCEP
T1 sequence (P08603 19-1231 limits assumed): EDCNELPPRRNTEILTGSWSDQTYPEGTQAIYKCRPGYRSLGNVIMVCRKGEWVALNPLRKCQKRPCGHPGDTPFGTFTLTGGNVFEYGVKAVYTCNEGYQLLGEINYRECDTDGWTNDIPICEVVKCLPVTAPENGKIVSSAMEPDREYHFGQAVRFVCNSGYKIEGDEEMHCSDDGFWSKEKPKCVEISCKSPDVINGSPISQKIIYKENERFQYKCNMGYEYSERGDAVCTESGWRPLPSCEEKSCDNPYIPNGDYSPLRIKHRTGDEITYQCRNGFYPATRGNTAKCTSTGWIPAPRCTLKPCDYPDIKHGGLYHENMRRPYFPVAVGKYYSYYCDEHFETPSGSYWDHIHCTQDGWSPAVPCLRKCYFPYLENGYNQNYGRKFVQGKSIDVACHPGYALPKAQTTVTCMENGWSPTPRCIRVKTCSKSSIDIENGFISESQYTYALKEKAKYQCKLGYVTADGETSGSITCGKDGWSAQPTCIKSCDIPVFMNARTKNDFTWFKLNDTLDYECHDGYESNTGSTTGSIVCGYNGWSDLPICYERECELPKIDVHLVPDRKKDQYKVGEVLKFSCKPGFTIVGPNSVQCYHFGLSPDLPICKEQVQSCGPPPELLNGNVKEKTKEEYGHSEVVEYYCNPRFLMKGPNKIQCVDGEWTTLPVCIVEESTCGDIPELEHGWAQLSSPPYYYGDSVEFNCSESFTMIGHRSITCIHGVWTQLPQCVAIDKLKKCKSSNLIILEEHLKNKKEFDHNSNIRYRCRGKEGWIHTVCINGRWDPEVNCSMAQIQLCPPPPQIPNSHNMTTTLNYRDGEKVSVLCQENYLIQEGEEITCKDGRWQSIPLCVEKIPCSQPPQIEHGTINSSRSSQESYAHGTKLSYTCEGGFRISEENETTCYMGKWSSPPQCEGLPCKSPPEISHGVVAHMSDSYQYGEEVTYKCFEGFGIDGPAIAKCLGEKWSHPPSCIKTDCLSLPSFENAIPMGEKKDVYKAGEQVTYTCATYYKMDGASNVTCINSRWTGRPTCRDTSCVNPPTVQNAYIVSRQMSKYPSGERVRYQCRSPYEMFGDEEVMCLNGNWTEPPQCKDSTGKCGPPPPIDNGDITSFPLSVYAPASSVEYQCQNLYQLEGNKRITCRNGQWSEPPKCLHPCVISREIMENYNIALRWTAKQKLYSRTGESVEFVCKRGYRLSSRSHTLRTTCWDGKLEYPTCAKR
Method: Equimolar amounts of CFH and SCR19-20 proteins (~150 kDa and ~15 kDa, respectively) were treated with Tris-HCl (oxidized) or TCEP (reduced) prior to electrophoresis. The proteins were transferred to PVDF, and the membranes were placed into a "Surf-Blot" apparatus for immunoblot analysis. […] Binding was visualized with an antihuman IgG-HRP conjugate and chemiluminescent substrate, exposing the entire blot to one piece of film.

Row | Molecule | plasma membrane calreticulin (H460 cells) | plasma membrane calreticulin (A549 cells) | binding result [1]
1 | COc1cccc2c1C(=O)c1c(O)c3c(c(O)c1C2=O)C[C@@](O)(C(=O)CO)C[C@@H]3O[C@H]1C[C@H](N)[C@H](O)[C@H](C)O1 [doxorubicin, reference compound] | increases in plasma membrane calreticulin | increases in plasma membrane calreticulin | –
2 | Ab7955 (antibody, V domains shown, Recombinant human mAb; also called CFH mAb 7955) VH: LVESGGGVVRPGRSLRLSCVASGFTFNAYGMHWVRQGPGKGLEWLAVISYEGKTVYYADSVKDRFTISRDNSRNTVSLHLNNLRGEDTAVYYCAKGSASAAVLQHWGQGTLVSVTS VL: MTQSPGSLAVSLGSRATINCKSSRSLLYRSNNKNYLAWYQQKPGQSPRLLIYWASSRESGVPDRFSGGGSGTSFTLTISSLQAEDVAVYYCQQYFNPPWTFGQGTKVEIK | – | – | binds
